In PubChem BioAssay (NCI):
Several values for one entry are separate records, joined by “and”; a condition that tells them apart may be missing. Equal entries are not always repeated.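 Grown in 96-well plates, cells were treated for 48 hours with each compound at five concentrations. Insufficient inhibition: endpoint recorded as highest concentration tested. Abbreviation: GI50, concentration required for 50% inhibition of growth. Definition used: TGI = concentration required for complete inhibition of growth.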

Tests used:
Test in all cases: NCI tumour cell line growth inhibition, 48 h
KM12 colon = tested on: KM12 colon
HCT-116 colon = tested on: HCT-116 colon
SF-295 CNS = tested on: SF-295 CNS
SK-MEL-2 melanoma = tested on: SK-MEL-2 melanoma
SF-539 CNS = tested on: SF-539 CNS
DU-145 prostate = tested on: DU-145 prostate
NCI-H23 lung = tested on: NCI-H23 lung
SN12C renal = tested on: SN12C renal
SK-OV-3 ovarian = tested on: SK-OV-3 ovarian
ACHN renal = tested on: ACHN renal

Row | Structure (SMILES) | GI50 (KM12 colon) [µM] | TGI (KM12 colon) | GI50 (HCT-116 colon) [µM] | TGI (HCT-116 colon) [µM] | GI50 (SF-295 CNS) [µM] | TGI (SF-295 CNS) [µM] | GI50 (SK-MEL-2 melanoma) | TGI (SK-MEL-2 melanoma) | GI50 (SF-539 CNS) [µM] | TGI (SF-539 CNS) | GI50 (DU-145 prostate) | TGI (DU-145 prostate) [µM] | GI50 (NCI-H23 lung) [µM] | TGI (NCI-H23 lung) [µM] | GI50 (SN12C renal) [µM] | TGI (SN12C renal) [µM] | GI50 (SK-OV-3 ovarian) [µM] | TGI (SK-OV-3 ovarian) [µM] | GI50 (ACHN renal) [µM] | TGI (ACHN renal) [µM]
1 | CC(C)(C)c1cc(C(=O)Nc2ccccc2C(=O)NCCN)cc(C(C)(C)C)c1 | 1.79 | 3.4 µM | 1.8 | 3.25 | 1.88 | 3.59 | 1.94 µM | 3.7 µM | 1.89 | 3.5 µM | 1.84 µM | 3.4 | 1.94 | 3.89 | 1.97 | 3.97 | 1.9 | 3.69 | 1.84 | 3.46
2 | CCN(CC)c1ccc(/C=C/C(=O)c2ccc(Nc3nc(Nc4ccccc4)nc(Nc4ccccc4)n3)cc2)cc1 | 1.42 | 65.1 µM | 2.47 | > 100 | 1.41 | 23.3 | 4.04 µM | 85.2 µM | 9.08 | > 100 µM | 5.04 µM | 79.2 | 11.1 | > 100 | > 100 | > 100 | 10.6 | > 100 | 6.1 | > 100
3 | COc1ccc(C(O)c2cc3c(N)c(C(=O)Nc4ccc(Cl)cc4)sc3nc2C)cc1 (stereo not drawn) | 1.64 | 7.1 µM | 2.01 | 14.3 | 2.14 | 11.6 | 8.6 µM | 69.6 µM | 2.4 | 8.08 µM | 2.71 µM | 7.66 | 5.07 | 52.5 | 5.53 | 24.9 | 3.21 | 15.5 | 3.53 | 15.7
4 | COc1cc(/C=C2\C(=O)N(Cc3ccc(Cl)cc3)c3ccccc32)cc(OC)c1OC | 2.19 | 5.7 µM | 1.68 | 3.19 | 4.41 | 32.3 | 4.86 µM | 18 µM | 4.95 | 11.1 µM | 2.05 µM | 5.04 | 2.92 | 13.5 | 2.59 | 8.99 | 6.82 | > 89.4 | 2.9 | 8.37
5 | CC(C)/C=C1\CCC(CN(C)C)C1=O (stereo not drawn) | – | 4.65 µM | – | 2.5 | – | 31.2 | – | 14.3 µM | – | 19.8 µM | – | 3.21 | – | 25.4 | – | 16.3 | – | 32.4 | – | 12.5
6 | N#CCn1c(=O)c(Oc2ccc(F)cc2F)cc2cnc(NC3CCOCC3)nc21 | > 25 | > 25 µM | > 25 | > 25 | > 25 | > 25 | > 25 µM | > 25 µM | > 25 | > 25 µM | > 25 µM | > 25 | > 25 | > 25 | > 25 | > 25 | > 25 | > 25 | 19.5 | > 25
7 | O=C(Nc1ccc(Oc2ccc3nc(NC(=O)c4ccco4)[nH]c3c2)cc1)Nc1cc(C(F)(F)F)ccc1F | 0.0178 | 4.31 µM | 0.437 | 4.57 | 1.76 | > 12.2 | 0.668 µM | 4.37 µM | 0.943 | 5.69 µM | 2.92 µM | 10.6 | 0.852 | 9.08 | 0.89 | 10.9 | 3.44 | 12.1 | 1.28 | 6.08
8 | COc1ccc2c(c1)OC(N)=C(C#N)C2c1cc(OC)c(OC)c(OC)c1 (stereo not drawn) | – | – | 0.0331 | > 37.5 | 0.03 | > 44.4 | 0.0321 µM | 0.151 µM | 0.0316 | 31.8 µM | 0.0279 µM | 0.0802 | 0.0362 | > 47.7 | 0.0494 | > 100 | 0.0304 | 1.11 | 0.0691 | > 100
9 | CC1CC2C3CCC4=CC(=O)C=CC4(C)C3(F)C(O)CC2(C)C1(O)C(=O)COP(=O)(O)O (stereo not drawn) | > 500 | > 500 µM | > 500 | > 500 | > 500 | > 500 | > 500 µM | > 500 µM | > 500 | > 500 µM | > 500 µM | > 500 | > 500 | > 500 | > 500 | > 500 | > 500 | > 500 | > 500 | > 500
10 | COc1ccc2nc3cc(Cl)ccc3c(NCCCNCCO)c2c1 | 0.498 | 2.81 µM | 0.326 | 1.43 | 0.523 | 2.32 | 1.32 µM | 2.79 µM | 0.508 | 2.35 µM | 0.48 µM | 2.77 | 0.499 | 2.48 | 0.371 | 2.48 | 0.635 | 3.33 | 0.403 | 3.25
11 | CC(=O)Nc1ccc(C(=O)CCl)cc1 | 12.2 | 25.7 µM | 2.2 | 4.95 | 16 | 33.7 | 13.3 µM | 27.8 µM | 3.63 | 14.7 µM | 9.19 µM | 21.2 | 11.4 | 31.6 | 5.35 | 19.2 | 15.1 | 28.3 | 1.8 | 3.29
12 | C=C1C[C@H]2C=Nc3cc(OCCCOc4cc5c(cc4OC)C(=O)N4CC(=C)C[C@H]4C=N5)c(OC)cc3C(=O)N2C1 | 0.0201 | 0.0722 µM and 0.0169 µM | – | – | 0.00706 | 0.64 | 0.0168 µM and < 0.0128 µM | 0.0347 µM and < 0.0282 µM | 0.00459 | 0.0117 µM and 0.0286 µM | 0.00496 µM and < 0.0133 µM | 24 | – | 0.0158 | 0.00151 | – | < 0.0147 | 33.1 | – | 0.0922
13 | CC(C)=CCc1cc2c(cc1O)C1=C(C(=O)C3=C(C1=O)S(=O)(=O)CCN3)C(C=C(C)C)O2 (stereo not drawn) | 2.05 | 6.99 µM | 0.474 | 1.77 | 2.38 | 5.1 | 1.44 µM | 5.29 µM | 1.96 | 4.02 µM | 0.309 µM | 0.597 | 0.7 | 4.01 | 0.294 | 0.651 | 2.98 | 5.54 | 2.27 | 5.65
